Measurements reported in patent publication US20230069886A1, “AROMATIC SULPHONAMIDES DERIVATIVES THAT INHIBITS PDI A3, THEIR SYNTHESIS AND USE” (Uniwersytet Jagiellonski, priority 2020, published 2023).

Test system: MDA-MB-231
Assay: MTT antiproliferative assay, 48 h, MDA-MB-231
Format: cell-based, human
Details: 48-hour exposition, read-out: Cytotoxicity, IC50, μM MDA-MB-231

Which IC50 does the source give for `COC(=O)C1CN1S(=O)(=O)c1ccc2c(C=O)c(N(C)C)ccc2c1` (stereo not shown) [Compound C-3390, Methyl 1-[[6-(dimethylamino)-5-formyl-2-naphthyl]sulfonyl]aziridine-2-calboxylate] here?
The IC50 was 18 ± 0.1 µM.
